From patent US9314453B2, “Tetrahydropyridoethers for treatment of AMD” (KATAIRO GmbH, priority 2008, dated 2016) come the findings set out here.

For data set [1], the system named is RPE cells. Briefly: Fluorescence microscopy of lipofuscin granules in RPE sections of treated monkeys. It is filed as in vivo, Cynomolgus monkey. The source says: Section was illuminated under the fluorescence microscope with 360 nm wavelength light. Lipofuscin granules were detected by the emission of gold-yellow light with […] wavelength. […] Macrophages between the RPE and Bruch's membrane, however, contained many lipofuscin granules. The majority of these granules were smaller than those in RPE cells of untreated animals.

The subject of data set [2] is RPE cells. As to the kind of experiment: 52-week oral study in the Cynomolgus monkey, conventional histopathology. It is filed as in vivo. On the procedure:
Soraprazan was administrated in oral application of 6, 12 and 24 mg/kg/day for 52 weeks in the Cynomolgus monkey.
Some monkeys from the control and the high-dose group were subjected to a recovery period of 3 months.
Two of these 3 monkeys had depigmentation of RPE cells although the photoreceptors facing the depigmented RPE stayed healthy. These RPE cells had released melanin as well as lipofuscin granules to secondary cells that had migrated between Bruch's membrane and the RPE cell layer or into the subretinal space.

The test system of data set [3] is Retinal pigment epithelium (RPE) cells from human donor eyes. As to the kind of experiment: Lipofuscin content and pigmentation in cultured RPE cells from human donor eyes (digital image analysis). The class given is cell-based. Conditions: for Lipofuscin and pigment content in cultured RPE cells: 50 μg/ml or 0.25 mM, permanent exposure, versus control; for Lipofuscin and melanin in cultured human RPE cells: after 26 days of treatment (FIG. 18). On the procedure:
Retinal pigment epithelium (RPE) cells from human donor eyes were cultured and exposed permanently to either vehicle solution, solution of Soraprazan or solution of 7R,8R,9R)-2,3-Dimethyl-7-ethoxy-8-hydroxy-9-phenyl-7,8,9,10-tetrahydro-imidazo-[1,2-h][1,7]-naphthyridin (called substance 1) at a concentration of 50 μg/ml or 0.25 mM. At several time points, digital images were taken and analysed with respect to the portion of lipofuscin and pigmentation in general. As the results did strongly depend on the random choice of microscopic field and the variations of the data were very high, the values of four consecutive days of five independent experiments were averaged. The results for the lipofuscin content in the RPE cells are shown in the diagram (FIG. 18).
Retinal pigment epithelium (RPE) cells from human donor eyes were cultured and exposed permanently to either vehicle solution, solution of Soraprazan or solution of substance 1 (concentration 50 μg/ml or 0.25 mM). At several time points, digital images were taken and analysed with respect to the portion of lipofuscin and pigmentation in general.

In data set [4] the test system is retinal pigment epithelium. Briefly: Transmission electron microscopy of RPE and photoreceptors after 52 weeks oral treatment. The class given is in vivo, Cynomolgus monkey. On the procedure:
In the present example the effect of Soraprazan on pigmentation of the retinal pigment epithelium in the Cynomolgus monkey (4 years of age) after oral application of 24 mg/kg/day for 52 weeks is shown.
Right eyes from the following animals were subjected to transmission electron microscopy:
Right eyes were removed carefully. A circular slit was cut at the limbus in order to immerse the inner eye with the fixation fluid (5% Glutaraldehyd in […] Cacodylat buffer). From these eyes, specimens ([…] in diameter) from the macula and from the mid-area were cut out, were postfixed in OsO4, treated with uranylacetate, dehydrated and embedded in Epon resin.
Semithin sections (0.7 μm) were prepared from Epon resin blocks. They were stained with toluidin blue and evaluated under a light microscope. Subsequently, ultrathin sections (50 nm) were cut from Epon resin blocks, contrasted and evaluated in a transmission electron microscope.
The number of lipofuscin granules that were smaller than 0.4 μm in diameter was counted in the cytoplasm of ultrathin sections of RPE cells from untreated and treated monkeys. In addition the same counts were performed in macrophages located between RPE and Bruch's membrane of treated monkeys. The results were 4.9±0.6/50 μm^2, 0.6±0.2/50 μm^2; […]. Lipofuscin granules larger than 1 μm in diameter were absent in RPE cells of treated animals. In contrast many of them were present in RPE cells of untreated monkeys.

Data set [5] deals with photoreceptors and post-receptoral systems. As to the kind of experiment: Electroretinography (ERG) after intravitreal injection in Wistar rats. It is filed as in vivo. Conditions: for ERG a-wave and b-wave amplitudes after injection, compared with vehicle: intravitreal, 50 μg/ml or 0.25 mM in the vitreous, highest light intensity, initial decrease; for ERG a-wave and b-wave amplitudes, recovery: three weeks after the intravitreal injection. Here is the method: (§1) The effects of lipofuscin in vivo, i.e. in the living eye of experimental rats after an intravitreal injection of the compounds were investigated. Vehicle solution or solutions of either substance 1 or Soraprazan were injected intravitreally in half-year old Wistar rats. The final concentration in the vitreous was the same as in the cell cultures, i.e. 50 μg/ml or 0.25 mM. In order to avoid mutual interactions between the two eyes of an animal, both eyes of an animal were treated the same way, with three animals (i.e. six eyes) per group.
(§2) Two kinds of evaluation were performed in these animals—electroretinography (ERG) for functional testing, and counting of lipofuscin particles to check whether the administration of the compounds leads to a decrease of lipofuscin contents in the RPE.
Before the injection, electroretinograms were measured to obtain base line values. Additional ERG measurements were performed one, two and three weeks after the intravitreal injections. Some results are shown in the diagrams below.

The subject of data set [6] is Heavily pigmented human donor RPE cells. Briefly: Electron microscopy / semithin sections of heavily pigmented human donor RPE cells, degradational clusters. The class given is cell-based. Conditions: 28 days. On the procedure: Heavily pigmented human donor RPE cells (passage)) were treated with 50 μg/ml substance 1 or 30 μg/ml Soraprazan and cultured for 28 days. Cells without treatment were used as controls. Cells were fixed for electron microscopy in 2% glutaraldehyde and embedded in EPON. Semithin and ultrathin sections were cut.
In the semithin sections, the clusters could be observed as well. Here, the pigmented cells bearing one or more clusters were counted. Degradational clusters were detected in 90.5%+/−21.3 of cells treated with substance 1 and in 80.1%+/−22.6 of cells treated with Soraprazan, but only in 16.8%+/−21.6 of untreated cells (p<0.0001).

The subject of the next data set is RPE. As to the kind of experiment: Counting of fluorescent lipofuscin particles in RPE after intravitreal injection in Wistar rats. It is filed as in vivo. Conditions: three weeks after one single intravitreal injection, 50 μg/ml or 0.25 mM in the vitreous. On the procedure: as §1, §2
The eyes were isolated after three weeks, fixed in formalin and embedded in paraffin. Paraffin sections were made, and digital fluorescence images were evaluated. The number of fluorescent lipofuscin particles per 50 μm RPE layer length was counted. The results are shown in the diagram (FIG. 21).

Data set [7] deals with RPE cell cultures from human donor eyes. Briefly: Phagocytosis of fluorescent latex beads by RPE cell cultures. It is filed as cell-based. Here is the method: Then the treatment-dependent ability of the cells to phagocytose, which is a crucial function of the RPE, was checked. For this purpose, RPE cell cultures from human donor eyes were exposed to vehicle or substance 1. After three weeks, fluorescent latex beads were added to the cell cultures for four hours. The cells were then washed to remove non-phagocytosed beads and fixed. Fluorescent images of the cells were taken and analysed for the contents of lipofuscin and the number of phagocytosed beads. The results shown in FIG. 19 are presented as the relationship between lipofuscin content and phagocytosed bead number in both controls and substance-1-treated cells.

With `COCCO[C@@H]1c2ccn3c(C)c(C)nc3c2N[C@H](c2ccccc2)[C@H]1O` [Soraprazan, (7R,8R,9R)-2,3-Dimethyl-8-hydroxy-7-(2-methoxyethoxy)-9-phenyl-7,8,9,10-tetrahydro-imidazo[1,2-h][1,7]naphthyridine], the “Lipofuscin granules in depigmented RPE cells (fluorescence, 360 nm illumination)” value in the data set with RPE cells [1] is “completely or almost completely absent”. Besides, the Conventional histopathology entry with RPE cells [2] (oral 6 mg/kg/day for 52 weeks) is on record as “no alterations”. Also, in the data set on RPE cells [2] (oral 12 mg/kg/day for 52 weeks), the Conventional histopathology entry is on record as “no alterations”. In the data set on RPE cells [2] (oral 24 mg/kg/day for 52 weeks), the “Monkeys showing migration of individual macrophages beneath the RPE and/or into the subretinal space” value is reported as “Three out of 12”. In data set [3], the “Lipofuscin and pigment content in cultured RPE cells” value is listed as “decreased compared to the control”; the “Lipofuscin and melanin in cultured human RPE cells” value is listed as “reduced”. In addition, the “Morphological changes in the neuroretina at the ultrastructural level” value in data set [4] (24 mg/kg/day for 52 weeks) is given as “No morphological changes”. Moreover, in data set [4] (oral 24 mg/kg/day, 52 weeks), the “Monkeys with loss of melanin and lipofuscin in RPE cells” value was 3 out of 7; the “Ultrastructural alterations in the retina compared to untreated monkeys” value is recorded as “could not be detected”. For the same compound, the “Lipofuscin granules larger than 1 μm in diameter in RPE cells” value in data set [4] (treated animals) is given as “absent”. Further, in data set [4] (ultrathin sections, treated monkeys), the “Number of lipofuscin granules smaller than 0.4 μm in diameter in the cytoplasm of RPE cells” value is on record as 0.6±0.2 /50 μm^2. Moreover, in data set [5], the “ERG a-wave and b-wave amplitudes after injection, compared with vehicle” value was “decrease of the amplitudes is even more pronounced”; the “ERG a-wave and b-wave amplitudes, recovery” value is listed as “remained significantly lower than the base line”. In addition, the “Pigmented cells bearing degradational clusters” value in data set [6] (30 μg/ml) worked out at 80.1%+/−22.6. The “Number of fluorescent lipofuscin particles per 50 μm RPE layer length” value in the data set on RPE amounted to 15.0±8.3 particles per 50 μm.

A word on the melting point: it is the temperature of the solid-liquid transition. With `CCO[C@H]1c2ccn3c(C)c(C)nc3c2N[C@H](c2ccccc2)[C@H]1O` [Example 4, (7S,8R,9R)-2,3-Dimethyl-7-ethoxy-8-hydroxy-9-phenyl-7,8,9,10-tetrahydro-imidazo[1,2-h][1,7]naphthyridine], the melting point lay in the range of 135 to 137 °C.

`CO[C@@H]1[C@@H](c2ccccc2)Nc2c(ccn3c(C)c(C)nc23)[C@H]1OC` [Example 8, (7R,8R,9R)-2,3-Dimethyl-7,8-dimethoxy-9-phenyl-7,8,9,10-tetrahydro-imidazo[1,2-h][1,7]naphthyridine] returned a melting point of 155 to 156 °C.

On to `CO[C@@H]1c2ccn3c(C)c(C)nc3c2N[C@@H](c2ccccc2)[C@@H]1O` [Example 2B, (7R,8S,9S)-2,3-Dimethyl-8-hydroxy-7-methoxy-9-phenyl-7,8,9,10-tetrahydro-imidazo[1,2-h][1,7]naphthyridine], for which the melting point was 171 to 172 °C.

`Cc1nc2c3c(ccn2c1C)[C@H](OC(C)C)[C@H](O)[C@@H](c1ccccc1)N3` [Example 7, (7S,8R,9R)-2,3-Dimethyl-8-hydroxy-9-phenyl-7-(2-propoxy)-7,8,9,10-tetrahydro-imidazo[1,2-h][1,7]naphthyridine] came in with a melting point of 168 to 169 °C.

The compound `CO[C@H]1c2ccn3c(C)c(C)nc3c2N[C@H](c2ccccc2)[C@H]1O` [Example 2A, (7S,8R,9R)-2,3-Dimethyl-8-hydroxy-7-methoxy-9-phenyl-7,8,9,10-tetrahydro-imidazo[1,2-h][1,7]naphthyridine] came in with a melting point of 108 to 110 °C.

On to `CCO[C@@H]1c2ccn3c(C)c(C)nc3c2N[C@H](c2ccccc2)[C@H]1O` [substance 1], for which, in [3], the “Lipofuscin and pigment content in cultured RPE cells” value is “even more clear and significant decrease”; the “Lipofuscin and melanin in cultured human RPE cells” value is recorded as “reduced”. In [7] (after three weeks exposure, versus control (FIG. 19)), the “Lipofuscin content of RPE cells” value is reported as “much more lipofuscin under control conditions than under the influence of substance 1”. Further, the “Number of phagocytosed latex beads” value in data set [7] (three weeks exposure, beads for four hours, versus untreated cells (FIG. 19)) is “phagocytosed more beads than untreated cells”. In [5], the “ERG a-wave and b-wave amplitudes after injection, compared with vehicle” value was “decrease of the amplitudes is even more pronounced”; the “ERG a-wave and b-wave amplitudes, recovery” value was “recover almost completely”. Also, the “Pigmented cells bearing degradational clusters” value in data set [6] (50 μg/ml) amounted to 90.5%+/−21.3. In the data set with RPE, the “Number of fluorescent lipofuscin particles per 50 μm RPE layer length” value is listed as 9.8±6.1 particles per 50 μm.

On to `CO[C@H]1c2ccn3c(C)c(C)nc3c2N[C@@H](c2ccccc2)[C@@H]1O` [Example 1B, (7S,8S,9S)-2,3-Dimethyl-8-hydroxy-7-methoxy-9-phenyl-7,8,9,10-tetrahydro-imidazo[1,2-h][1,7]naphthyridine], for which the melting point lay in the range of 161 to 162 °C.
